Data reported in US10927107B2, “Phenyl [a]indole[2,3-g]quinolizine compounds, preparation method therefor, pharmaceutical composition, and applications thereof” (Shanghai Institute of Materia Medica, Chinese Academy of …, priority 2016, dated 2021).
Like-named read-outs stand apart in the source and are kept apart here.

Legend:
[1] = test system: HepG2 cells; assay: In vitro lipid-lowering activity: DiI-LDL uptake in HepG2 cells; format: cell-based; settings: Homo sapiens, test compound 5 uM, 24 h, DiI-LDL 20 ug/ml, 3 h, FLU of sample group/FLU of blank group x100%, read-out: LDL uptake rate
Method: HepG2 cells were inoculated in 24-well plates, cultured in DMEM containing 10% FBS for 24 h or 48 h, and then transferred to DMEM containing 2% defatted serum and cultivated for 24 h. The old culture solution was discarded and replaced with new 2% defatted serum DMEM, and a test compound (the working concentration of which is 5 uM, triplicate for each sample) was added and incubated for 24 h. The old culture solution was abandoned and DMEM containing DiI-LDL (20 ug/ml) was added (300 ul/per 24 wells), incubated for 3 h. DMEM containing DiI-LDL was discarded, and cells were rinsed twice with PBS containing 0.4% BSA, and 3 times with PBS to remove excess DiI-LDL. Isopropanol was added (500 ul/per well of a 24-well plate), and was kept in darkness. After shaken for 20 minutes, 200 ul of supernatant was sucked to a black fluorescent plate, and fluorescence intensity (FLU) was detected at excitation light 520 nm and emission light 578 nm. The experimental results were calculated: LDL uptake rate=(FLU value of sample group to be tested/FLU value of blank group)×100%.

[2] = test system: Syrian golden hamsters (high-fat diet, hyperlipidemia model); assay: In vivo lipid-lowering activity in high-fat diet golden hamsters; set-up: species or system Syrian golden hamster; settings: for CHOL / HDL-C / LDL-C / TG: high-fat diet, serum
Method: After adaptively feeding Syrian golden hamsters (male, 80-100 g) for a week, all hamsters were fed with high-fat diet. Two weeks later, blood was collected from the orbital venous plexus, serum was separated, and levels of total cholesterol (TC), triglyceride (TG), high-density lipoprotein (HDL-C) and low-density lipoprotein (LDL-C) in serum were measured. They were evenly grouped according to blood lipid levels into […]: model control group, A1 intragastric administration group, A1 intraperitoneal administration group, A5 intragastric administration group, A5 intraperitoneal administration group, A55 intragastric administration group, A55 intraperitoneal administration group, B5 intragastric administration group, B5 intraperitoneal administration group, and the animals in each group were continued to be administered with high fat diet. […] […] Blood lipid levels and body weights were measured every 10 days. After three weeks, the animals were sacrificed and the liver was stored in a −80° C. refrigerator.

[3] = biological target: T1, α1A-adrenergic receptor (α1A-AR) (Homo sapiens, UniProt P35348); assay: Antagonistic activity on α1A-AR: calcium fluorescence in HEK293 cells stimulated with phenylephrine; format: cell-based; settings: HEK293 cells expressing α1A-AR; agonist phenylephrine 30 nM; calcium fluorescence; read-out: α1A-AR/IC50
T1 construct: expressed in transfected cells; host or cells: HEK293
T1 sequence (P35348 1-466): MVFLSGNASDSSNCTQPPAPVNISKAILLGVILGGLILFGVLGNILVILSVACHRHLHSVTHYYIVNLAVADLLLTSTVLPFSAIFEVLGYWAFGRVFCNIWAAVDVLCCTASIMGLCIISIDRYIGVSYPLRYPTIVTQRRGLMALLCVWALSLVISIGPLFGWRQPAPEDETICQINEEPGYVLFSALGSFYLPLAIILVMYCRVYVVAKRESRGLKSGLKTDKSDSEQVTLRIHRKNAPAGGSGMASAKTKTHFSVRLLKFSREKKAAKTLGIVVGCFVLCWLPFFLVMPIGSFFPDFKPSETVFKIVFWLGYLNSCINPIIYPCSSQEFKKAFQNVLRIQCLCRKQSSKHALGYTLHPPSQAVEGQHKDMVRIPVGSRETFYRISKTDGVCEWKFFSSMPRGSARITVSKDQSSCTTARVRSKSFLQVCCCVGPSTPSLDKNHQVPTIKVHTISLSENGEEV
Method: HEK293 cells stably expressing α1A-adrenergic receptor (α1A-AR) and G protein […] were seeded in 96-well plates. After 24 hours of culture, the medium was removed, and 40 μL of Hank's balanced salt solution (HBSS: containing 5.4 mM KCl, 0.3 mM Na2HPO4, 0.4 mM KH2PO4, 4.2 mM NaHCO3, 1.3 mM CaCl2, 0.5 mM MgCl2, 0.6 mM MgSO4, 137 mM NaCl, 5.6 mM D-glucose and 250 μM sulfinpyridone, pH 7.4) containing 2 μM of MFluo-4AM was added to each well, and incubated for 45 minutes in an incubator. The dye was aspirated and 50 μL of HBSS containing a test compound or 1% DMSO (negative control) was added and incubated for 10 minutes at room temperature, and then read with Flex Station 3 microplate reader. At the specified time point, 25 μL of agonist phenylephrine (final concentration 30 nM) will be automatically added by the detector into the reaction system, and simultaneously stimulated with 485 nm light, and the change in intensity of fluorescence caused by the change in the intracellular calcium ion concentration was detected at 525 nm. […] The response rate of different doses of the same drug was analyzed by GraphPad Prism software to obtain a dose-response curve and the IC50 value was measured. Each experiment was performed in […].

[4] = Rat pharmacokinetics; set-up: AUC(0-t) / AUC(0-inf): concentration or dose not given beside the values; settings: in vivo, ip, i.p; for AUC(0-inf): read-out: AUCINF—obs; for MRT inf: read-out: MRTINF—obs
[5] = Rat pharmacokinetics; format: in vivo; set-up: AUC(0-t) / AUC(0-inf): concentration or dose not given beside the values; settings: in vivo; for AUC(0-inf): read-out: AUCINF—obs; for MRT inf: read-out: MRTINF—obs
Method: (§1) A1 10 μL of a plasma sample was taken in a centrifuge tube and 100 μL of methanol:acetonitrile (1:1, v/v) was added, vortexed for 1 min, centrifugated (14000 rpm) for 5 min, and 50 μL supernatant was taken, mixed with equal volume of water, and analysised after vortex mixing. The linear range of A1 is: 0.1-300 ng/mL for oral administration and 1-3000 ng/mL for intravenous injection.
as §1, with “A55” for “A1”, “0.3-3000” for “1-3000”

[6] = abdominal (intraperitoneal) 30 mg/kg once a day for three weeks
[7] = oral (intragastric) 30 mg/kg once a day for three weeks

IC50 [3] [µM]	AUC(0-t) [4] [µg·h/mL]	AUC(0-inf) [4] [µg·h/mL]	MRT inf [4] [h]	half-life ([5]; ip, i.p) [h]	AUC(0-t) ([5]; po, i.g) [µg·h/mL]	Cmax ([5]; po, i.g) [ng/mL]	Tmax ([5]; po, i.g) [h]	bioavailability ([5]; po, i.g) [%]	half-life ([5]; po, i.g) [h]	AUC(0-inf) ([5]; po, i.g) [µg·h/mL]	MRT inf ([5]; po, i.g) [h]	SMILES	activity at 5 µM [1] [%]	TC ([2]; Dose 30, oral) [mmol/L]	other results
> 100	–	–	–	–	–	–	–	–	–	–	–	COc1ccc2[nH]c3c(c2c1)CC1c2cc(OCc4ccc(F)cc4)c(OC)cc2CCN1C3c1ccc(F)cc1 (stereo not shown) [Example B5, 2-((4-fluorobenzyl)oxo)-8-(4-fluorophenyl)-3,12-dimethoxy-5,6,8,9,14,14a-hexahydroindole[3′,2′:4,5]pyridine[2,1-a]isoquinoline]	134	–	CHOL [2, 6]: 14.92 mmol/L; HDL-C [2, 6]: 2.90 mmol/L; LDL-C [2, 6]: 7.89 mmol/L; TG [2, 6]: 16.14 mmol/L; CHOL [2, 7]: 14.79 mmol/L; HDL-C [2, 7]: 3.99 mmol/L; LDL-C [2, 7]: 7.66 mmol/L; TG [2, 7]: 11.94 mmol/L; contents of cholesterol (CHOL), triglyceride (TG) and low density lipoprotein (LDL-C) in the blood ([2]; hyperlipidemia model): significantly reduced
–	3.47	9.36	15.3	18.5	3.96	297	4	57.2	6.53	4.34	7.74	COc1ccc2[nH]c3c(c2c1)CC1c2cc(OCc4ccc(C(F)(F)F)cc4)c(OC)cc2CCN1C3 (stereo not shown) [Example C3, 3,12-dimethoxy-2-((4-(trifluoromethyl)benzyl)oxy)-5,6,8,9,14,14a-hexahydroindolo[3′,2′:4,5]pyridine[2,1-a]isoquinoline]	–	25.08 ± 16.98	TC ([2]; Dose 100, oral): 21.17 ± 3.89 mmol/L
> 100	14.9	1120	66.4	51.2	9.25	251	4	31	38.2	564	56.1	COc1ccc2[nH]c3c(c2c1)CC1c2cc(OC)c(OCc4ccc(C(F)(F)F)cc4)cc2CCN1C3 (stereo not shown) [Example C47, 2,12-dimethoxy-3-((4-(trifluoromethyl)benzyl)oxy)-5,6,8,9,14,14a-hexahydroindolo[3′,2′:4,5]pyridine[2,1-a]isoquinoline]	150	19.73 ± 6.44	Cmax ([5]; ip, i.p): 276 ng/mL; Tmax ([5]; ip, i.p): 24 h
